No end group written: not given here.
Legend:
[1] = tested on: Leptospira interrogans sl serovar canicola; test: Dogs immunized with PP-KLH, canicola challenge: PCR on plasma, urine and kidney samples; format: in vivo, dog
Method: The animals are given a challenge at a rate of one virulent culture of 4 to 6 days. For an immunized batch and a control batch, each animal received, in each eye, 0.3 ml of the culture having a titer of 120 TU (i.e. 2×10^8 leptospires per ml) and, intraperitoneally, 4 ml of the same culture diluted ten-fold.
The presence of leptospires was studied jointly by PCR (PCR specific for pathogenic leptospires) and by culturing, in the urine at D0, D10, D14, D18, D25 and D41 and in the kidney samples from each animal at the end of the trial at […].
Moreover, the bacteriological results were quantified through the setting up of a coefficient: • by immediate culturing. A single live leptospire can give a positive culture. A relative estimation of the bacterial concentration is expressed by means of a coefficient of 3 when a culture has developed in the third serial dilution prepared from the sample. • by PCR on frozen samples. […] A coefficient of 1 was assigned to a PCR with a weak signal and a coefficient of 2 to a strongly positive PCR.

PP peptide = test: Immunization of mice with PP peptide coupled to KLH, anti-PP IgG1/IgG2A ELISA; format: in vivo
Method: A batch of 5 mice was formed. Two injections were administered subcutaneously, two weeks apart. The 1st injection consists of 10 μg of PP peptide coupled to KLH, with complete Freund's adjuvant, in a volume of 200 μl (v/v). The 2nd injection consists of 10 μg of PP peptide coupled to KLH, with incomplete Freund's adjuvant, in a volume of 200 μl (v/v). This trial was carried out twice.
In parallel, a batch of 5 mice given nothing is used as a control.
A blood sample was taken two weeks after the second injection for serological monitoring.
The anti-PP antibodies produced in the mice are titered by means of an ELISA technique either on individual serological samples or on pools of several sera. The PP antigen is adsorbed in Immulon 4 plates (Dynatech) at a rate of 500 ng of PP per well diluted in 10 mM sodium carbonate buffer, pH=9.4.
After an overnight period at 4° C., the plates are washed with PBS containing 0.2% tween20, and then saturated with a solution of 1% BSA in TNE (50 mM Tris, 150 mM NaCl, 1 mM EDTA, pH 7.4) for 60 min at 37° C. […] The colored reaction is read in a spectrophotometer at 405 nm.
The results of the anti-PP IgG1 antibody response, expressed as corrected OD, of the immunization trials 1 and 2 with the PP peptide coupled to KLH are given in FIG. 1. […]

[2] = tested on: Leptospira interrogans sl serovar canicola; test: Trial 1: gerbils immunized with PP-KLH, 10^−2.5 canicola challenge; format: in vivo, gerbil
Method: An immunization/challenge protocol was carried out in order to evaluate the protection that can be provided by the PP peptide (SEQ ID No. 1) coupled to the KLH protein.
(§1) This construct is administered subcutaneously without adjuvant, with PBS as a negative control (batch 2).
Batch 1: 10 gerbils, 2 injections of 30 μg of PP-KLH in 300 μl, subcutaneously.
Batch 2: 10 gerbils, 2 injections of PBS in 300 μl.
The two injections in a volume of 300 μl were administered subcutaneously, two weeks apart. A challenge by intraperitoneal injection of 0.5 ml of a canicola culture with a titer of 90 to 100 TU (turbidimetry) diluted to 10^−2.5 was administered two weeks after the second injection. • Antigenic response: Monitoring by ELISA of the immune response of the gerbils against the PP peptide

[3] = Dogs immunized with PP-KLH, immunization phase (tolerance, weight); format: in vivo, dog
Method: An immunization/challenge protocol was carried out in order to evaluate the protection that can be provided by the PP peptide (SEQ ID No. 1) NH2-coupled to the KLH carrier protein (FIG. 14).
as §1
Batch 1: 6 SPF dogs, 2 injections of 250 μg of PP-KLH in 1 ml subcutaneously.
Batch 2: 6 SPF dogs, control.
The two injections were administered subcutaneously, […].
The immunization phase was carried out from D-39 to D-1, (D0 being the day of challenge), with the first injection on D-35 and second on D-18.
During this phase, the weight was measured on D-39, D-35, D-28, and D-7 (FIG. 15).

Substance: PP-KLH: PP peptide with cysteine added at the N-terminal position, coupled via sulfo-MBS to KLH carrier protein (keyhole limpet hemocyanin) (KAKPVQKLDDDDDGDDTYKEERHNK; not fully specified (N-terminus))
- positive PCR/dogs ([1]; Kidneys, D41): 1/6
- positive PCR/dogs ([1]; Plasma, D0): 0/6
- positive PCR/dogs ([1]; Plasma, D3): 6/6
- positive PCR/dogs ([1]; Plasma, D7): 0/6
- positive PCR/dogs ([1]; Urine, D14): 2/6
- positive PCR/dogs ([1]; Urine, D18): 1/6
- positive PCR/dogs ([1]; Urine, D25): 3/6
- positive PCR/dogs ([1]; Urine, D41): 4/6
- immunogenicity (PP peptide): very immunogenic
- anti-PP IgG2A antibody response (PP peptide; 2 s.c. injections of 10 μg with Freund's adjuvant): high but less substantial than the anti-PP IgG1 response
- Mortality rate ([2]; 10^−2.5 canicola challenge): 6/10
- Survival rate ([2]; 10^−2.5 canicola challenge): 4/10
- gerbils alive ([2]; 10^−2.5 canicola challenge, D4): 10
- gerbils alive ([2]; 10^−2.5 canicola challenge, D5): 10
- gerbils alive ([2]; 10^−2.5 canicola challenge, D6): 7
- gerbils alive ([2]; 10^−2.5 canicola challenge, D7): 5
- gerbils alive ([2]; 10^−2.5 canicola challenge, D8): 4
- gerbils alive ([2]; 10^−2.5 canicola challenge, D9): 4
- gerbils alive ([2]; 10^−2.5 canicola challenge, D10): 4
- gerbils alive ([2]; 10^−2.5 canicola challenge, D11): 4
- gerbils alive ([2]; 10^−2.5 canicola challenge, D30): 4
- gerbils alive ([2]; 10^−2.5 canicola challenge, before challenge): 10
- gerbils alive ([2]; 10^−2.5 canicola challenge, day of challenge): 10
- Survival rate ([2]; 10^−2.5 canicola challenge, listed as PP peptide coupled to the KLH protein): 4 of the 10
- p, log-rank test versus control ([2]; Experiment 1, survival): <7.10^−2
- tolerance in immunization phase ([3]; SPF dogs, 2 s.c. injections of 250 μg without adjuvant): complete tolerance
- p, evolution of mean increase in weights, control versus immunized dogs (not significantly different) ([3]; between D-35 and D-7): 0.8509

From US20070197432A1, “Peptides for preventing, diagnosing and treating animal and/or human leptospirosis” (priority 2002, published 2007)
